According to patent US20230041065A1, “METHODS FOR GENERATING HEMATOPOIETIC STEM CELLS” (The Brigham and Women`s Hospital, Inc., priority 2019, published 2023):
Entries after “also recorded” stand apart in the source; their conditions may differ.

Key:
[1] = test system: human PSC (DF19-9-7T)-derived hCD34+ hematopoietic cells; test: Transplantation of human PSC-derived hCD34+ hematopoietic cells in humanized mice; type: in vivo
E11.5 AGM cells = test: Whole transcriptome (RNA-seq) analyses of treated E11.5 AGM cells; type: cell-based, mouse
Protocol: RNA-sequencing analyses were performed to measure gene expression patterns in mouse AGM treated with cyclic strain or pharmacological modulators. Using computational algorithms, hierarchical clustering was performed of differentially expressed genes as well as measured their overrepresented biological processes and pathways. Gene expression clusters of differentially expressed genes were analyzed and their mean expression level across cell populations compared. Next, Venn comparison of up- and down-genes was constructed to analyze candidate(s) important for cyclic strain- or pharmacological modulator(s)-mediated the endothelial-to-HSC transition. Furthermore, Dnmt3b and Dnmt3a protein expressions were analyzed in nuclear fractions of mouse AGM cells using EqiQuick assay kits. Data are presented as mean±s.d. unless otherwise noted. Statistical analyses were performed by paired or un-paired Student's t-tests. Significance was set at P<0.05.
Total RNA from E11.5 mouse AGM explant cultures was isolated (control, stretch, Yoda1 and 4αPDD conditions) with the RNAeasy MiniKit (QIAGEN). Our cDNA libraries were generated by BGI Americas Corporation and sequenced with a HiSeq4000 device (Illumina) at eight samples per lane. We mapped our sequenced read fragments to the mouse reference genome GRCm38 (ENSEMBL release 69) using the Genomic Short-Read Nucleotide Alignment program (version 2012-07-20). DESeq2 and DEXSeq were used to test for differential expression (FDR=0.1) and differential exon use, respectively. Gene expression clusters of differentially expressed genes were analyzed and their mean expression level across cell populations compared. Next, Venn comparison was performed of up- and down-genes to analyze candidate(s) important for cyclic strain- or pharmacological modulator(s)-mediating the endothelial-to-HSC transition. Specifically, we performed hierarchical clustering with bootstrap analyses using the gplots package (Warners et al., 2017) in R (R Development Core Team, 2012). […]

human PSCs = test: FACS analyses of hematopoietic differentiation of human PSCs (embryoid bodies); type: cell-based
Protocol: Embryoid body and hemogenic endothelium differentiation was performed as described in (Sugimura et al. 2017; Ditadi et al. 2015). Briefly, hiPSC colonies were dissociated with 0.05% trypsin for 5 min at 37° C., washed with PBS+2% FBS, and resuspended in StemPro-34 (Invitrogen, 10639-011) supplemented with L-glutamine (2 mM), penicillin/streptomycin ([…]), ascorbic acid (1 mM), human holo-Transferrin ([…], Sigma T0665), monothioglycerol (MTG, 0.4 mM), BMP4 (10 ng/ml), and Y-27632 (10 μM). Five million cells were seeded into 10 cm dishes (Ezsphere, Asahi Glass) for the spheroid formation. On Day 1, bFGF (5 ng/ml) and BMP4 (10 ng/ml) was added to the medium. On Day 2, the media was changed with the StemPro-34 supplemented with SB431542 (6 μM), CHIR99021 (3 μM), bFGF (5 ng/ml), and BMP4 (10 ng/ml). On Day 3, the medium was replaced with StemPro-34 supplemented with VEGF (15 ng/ml) and bFGF (10 ng/ml). On day 6, the medium was changed to StemPro-34 supplemented with bFGF (5 ng/ml), VEGF (15 ng/ml), interleukin (IL)-6 (10 ng/ml), IGF-1 (25 ng/ml), IL-11 (5 ng/ml), SCF (50 ng/ml) and EPO (2IU). The cells were maintained in a 5% CO2, 5% O2 and 95% humidity incubator. All cytokines were purchased from Peprotech.
To isolate the CD34^+ cells, the embryoid bodies (from day 8) were dissociated by 0.05% trypsin, filtered through a 70 μm strainer, CD34^+ cells were isolated by CD34 magnetic bead staining, and subsequently passaged through the LS columns (Miltenyi). A sample from every batch was tested by FACS to validate its purity with the panel. The following antibodies were employed: CD34-PEcy7 (Clone 581; Biolegend), FLK1-PE (CLONE #89106; BD), and 4′,6-diamidino-2-phenylindole (DAPI).
Isolated CD34^+ cells were resuspended in StemPro-34 medium containing Y-27632 (10 μM), TPO (30 ng/ml), IL-3 (10 ng/ml), SCF (50 ng/ml), IL-6 (10 ng/ml), IL-11 (5 ng/ml), IGF-1 (25 ng/ml), VEGF (5 ng/ml), bFGF (5 ng/ml), BMP4 (10 ng/ml), and FLT3 (10 ng/ml) (Ferrel et al 2015). Cells were seeded at a density of 50,000 cells per well onto thin-layer Matrigel-coated 24-well plates. […]

[2] = test system: cd41:eGFP+ HSCs emerging from flk1:mCherry+ endothelial cells; test: Time-lapse confocal imaging of cd41:eGFP+ HSCs emerging from flk1:mCherry+ endothelial cells in transgenic embryos; type: in vivo, zebrafish; conditions: 26-42 hpf
Protocol: Mice were purchased Cd45.2 (C57BL6/J) and Cd45.1 (SJL) from The Jackson Laboratory and zebrafish morpholinos from GeneTools. Microangiography was performed by injecting fluorescent-labeled dextran dye in the atrium of zebrafish heart and its passage was recorded using live imaging. Immunostaining of zebrafish heart and mouse AGM were analyzed using an inverted fluorescent microscope. Cardiac tamponade, heart rate, and pulse frequency were analyzed in zebrafish embryos using bright field imaging or time-lapse confocal microscopy. The movement of red blood cells in blood vessels was analyzed as well as the endothelial-to-HSC transition in zebrafish transgenic embryos using time-lapse confocal imaging.
Zebrafish embryos were treated with the following chemical modulators in E3 fish media: 100 uM L-NAME (Fisher Scientific), 50 uM Digitoxigenin (Sigma), 25-50 uM Yoda1 (Cayman Chemical), 1 uM Nanaomycin (Nana; Fisher Scientific), 100 uM Gadolinium chloride (GdCl3; Sigma), 5-10 uM 4α-phorbol 12, 13-didecanaote (4Apdd; Sigma), or GSK205 (10 uM).
cd41:eGFP were crossed with flk1:mCherry zebrafish and flk1:mCherry with lcr:eGFP zebrafish and injected morpholino in their transgenic embryos. […] The relative movement of lcr:eGFP^+ red blood cells was analyzed in the context of flk1:mCherry^+ endothelium. We performed image analysis using Imaris (Bitplane) software.

Clc1cccc(Cl)c1CSc1nnc(-c2cnccn2)s1 [Yoda1, 2-[5-[[(2,6-Dichlorophenyl)methyl]thio]-1,3,4-thiadiazol-2-yl]-pyrazine]
percentage of bone marrow reconstitution to human CD33+, CD3+ and CD19+ cells ([1]; primary transplant): stimulates the formation of hCD34+ hematopoietic cells that reconstitute multi-lineage blood | percentage of bone marrow chimerism ([1]; primary transplant, after 8-10 weeks): enhances the formation of engraftable human CD34+ cells; also recorded: enhances the formation of engraftable hCD34+ cells | percentage peripheral blood reconstitution to human CD33+, CD3+ and CD19+ cells ([1]; secondary transplant): stimulates the formation of human LT-HSCs that reconstitute multi-lineage blood upon serial transplantation | percentage of peripheral blood chimerism ([1]; secondary transplant, after 16 weeks): enhances the formation of self-renewing LT-HSCs | Dnmt3b and Gimap6 transcript expression (Venn comparison of up-regulated genes) (E11.5 AGM cells): specifically stimulate Dnmt3b transcript expression and Gimap6 transcript expression | expression of endothelial genes (E11.5 AGM cells): diminished expression of endothelial genes; also recorded: repress the expression of endothelial genes | expression of hematopoietic genes (E11.5 AGM cells): elevated expression of hematopoietic genes; also recorded: stimulating the expression of hematopoietic genes | improvement in the number of HSCs produced from hPSCs (human PSCs; FIG. 7C): 2 Fold | formation of CD34+CD90+ HSCs (human PSCs; day 8+7 of hematopoietic differentiation): enhances the formation of HSCs from hPSC | formation of hCD43negCD235negCD144+CD34+ HECs (human PSCs; embryoid bodies, day 8, control and PIEZO1-/- PSCs): enhances the formation of hCD43^negCD235^negCD144^+CD34^+ HE cells in control but not in PIEZO1^−/− PSCs; also recorded: enhances the formation of hCD43^negCD235^negCD144^+CD34^+ HECs in control but not in PIEZO1^−/− PSCs | HSC formation (endothelial-to-HSC transition) ([2]; control embryos): stimulates HSC formation in control embryos | HSC formation (endothelial-to-HSC transition) ([2]; sih-MO embryos): rescues HSC formation in sih-MO embryos
